Measured values from patent US7585834B2, “Transporters comprising spaced arginine moieties” (The Board of Trustees of the Leland Stanford Junior …, priority 2001, dated 2009).
Ahx = NCCCCCC(=O)O; Fl = fluorescein

Tested on: human T cell line, Jurkat
Experiment: cellular uptake assay of fluorescently labeled peptides (flow cytometry, mean fluorescent signal)
Assay type: cell-based
Details: Jurkat cells; for cellular uptake relative to the homopolymer R7 having no spacing: FIG. 2, spacing by naturally occurring amino acids, fluorescein conjugates; for uptake (mean fluorescence) of (RX)6R transport oligomers versus homopolymers of D-arginine: FIG. 6, compared with (RX)6R, X = aca, gly-gly or gly; for cellular uptake of spaced arginine transport moieties tethered to fluorescein, relative to R7 homopolymer: FIG. 1, single amino acid spacing without side chains (glycine, abu, aca)
Method: The fluorescently labeled peptides were dissolved in PBS, pH 7.2, and their concentrations were determined by absorption of fluorescein at 490 nm (ε=67,000). The human T cell line, Jurkat, grown in 10% fetal calf serum in DMEM, was used for all the cellular uptake experiments. Varying amounts of the peptides were added to 3×10^5 cells in a total of 200λ, in wells of microtiter plates, and incubated for varying periods of time, ranging from three to five minutes. The cells were spun, washed three times with cold PBS, incubated with 0.05% trypsin/0.53 mM EDTA (Gibco, Grand Island, N.Y.) at 37° C. for five minutes, washed with PBS, and resuspended in PBS containing 0.1% propidium iodide. The cells were analyzed either using confocal microscopy or fluorescent flow cytometry (FACScan, Becton Dickinson, Milpitas, Calif.). Cells staining with propidium iodide were excluded from the analysis. Data presented is the mean fluorescent signal for the 5000 cells collected. To prevent cellular uptake of the peptides, the cells were treated with sodium azide (1.0%) for 25 minutes prior to exposure to the peptides.

Fl-aca-RNRRNRRNRR-CONH2 [Seq. I.D. No. 16]
cellular uptake relative to the homopolymer R7 having no spacing: increase in cellular uptake was found

Fl-aca-RFRRFRRFRR-CONH2 ({Fl-Ahx}-RFRRFRRFRR-NH2) [Seq. I.D. No. 10]
cellular uptake relative to the homopolymer R7 having no spacing: increase in cellular uptake was found

N[C@@H](Cc1c[nH]cn1)C(=O)O [Seq. I.D. No. 11]
cellular uptake relative to the homopolymer R7 having no spacing: increase in cellular uptake was found

Fl-aca-RPRRPRRPRR-CONH2 [Seq. I.D. No. 17]
cellular uptake relative to the homopolymer R7 having no spacing: increase in cellular uptake was found

Fl-aca-r13-CONH2 [Seq. I.D. No. 28, reference compound]
uptake (mean fluorescence) of (RX)6R transport oligomers versus homopolymers of D-arginine: significantly less effective in entering the cells

Fl-aca-RMRRMRRMRR-CONH2 [Seq. I.D. No. 15]
cellular uptake relative to the homopolymer R7 having no spacing: increase in cellular uptake was found

N[C@@H](Cc1ccc(O)cc1)C(=O)O [Seq. I.D. No. 22]
cellular uptake relative to the homopolymer R7 having no spacing: Reduced, or comparable uptake

Fl-aca-RSRRSRRSRR-CONH2 [Seq. I.D. No. 19]
cellular uptake relative to the homopolymer R7 having no spacing: increase in cellular uptake was found

Fl-aca-R7CONH2 [Seq. I.D. No. 2, reference compound]
cellular uptake at the lower concentration (FIG. 4, 6.25 μM): begins to drop off

CC[C@H](C)[C@H](N)C(=O)O [Seq. I.D. No. 12]
cellular uptake relative to the homopolymer R7 having no spacing: increase in cellular uptake was found

NC(=O)CC[C@H](N)C(=O)O [Seq. I.D. No. 18]
cellular uptake relative to the homopolymer R7 having no spacing: increase in cellular uptake was found

NCCCC[C@H](N)C(=O)O [Seq. I.D. No. 13]
cellular uptake relative to the homopolymer R7 having no spacing: increase in cellular uptake was found

N[C@@H](CCC(=O)O)C(=O)O [Seq. I.D. No. 9]
cellular uptake relative to the homopolymer R7 having no spacing: Reduced, or comparable uptake

Fl-aca-RGRRGRRGRR-CONH2 [Seq. I.D. No. 4]
cellular uptake of spaced arginine transport moieties tethered to fluorescein, relative to R7 homopolymer: ε-aminocaproic acid>γ-aminobutyric acid>glycine | cellular uptake relative to the homopolymer R7 having no spacing: increase in cellular uptake was found

Fl-aca-RVRRVRRVRR-CONH2 [Seq. I.D. No. 21]
cellular uptake relative to the homopolymer R7 having no spacing: increase in cellular uptake was found

Fl-aca-RacaRRacaRRacaRR-CONH2 [Seq. I.D. No. 6]
cellular uptake of spaced arginine transport moieties tethered to fluorescein, relative to R7 homopolymer: ε-aminocaproic acid>γ-aminobutyric acid>glycine

N[C@@H](CC(=O)O)C(=O)O [Seq. I.D. No. 8]
cellular uptake relative to the homopolymer R7 having no spacing: Reduced, or comparable uptake

Fl-aca-RabuRRabuRRabuRR-CONH2 [Seq. I.D. No. 5]
cellular uptake of spaced arginine transport moieties tethered to fluorescein, relative to R7 homopolymer: ε-aminocaproic acid>γ-aminobutyric acid>glycine

Fl-aca-r19-CONH2 [Seq. I.D. No. 29, reference compound]
uptake (mean fluorescence) of (RX)6R transport oligomers versus homopolymers of D-arginine: significantly less effective in entering the cells

C[C@@H](O)[C@H](N)C(=O)O [Seq. I.D. No. 20]
cellular uptake relative to the homopolymer R7 having no spacing: increase in cellular uptake was found

Fl-aca-RARRARRARR-CONH2 [Seq. I.D. No. 7]
cellular uptake relative to the homopolymer R7 having no spacing: increase in cellular uptake was found
